Reference: patent US4526989A, “1,4-Bis (substituted-amino)-5,8-dihydroxy-anthraquinones and leuco bases thereof” (priority 1979, dated 1985)
Like-named read-outs stand apart in the source and are kept apart here.

Experiments:
[1] = tested on: melanotic melanoma B16; assay: Melanotic Melanoma B16 test; format: in vivo, C57BC/6 mice; settings: days 1 through 9
Description: The animals used are C57BC/6 mice, all of the same sex, weighing a minimum of 17 g. and all within a 3-g. weight range. There are normally 10 animals per test group. A one-gram portion of melanotic melanoma B16 tumor is homogenized in 10 ml. of cold balanced salt solution and a 0.5-ml. aliquot of the homogenate is implanted intraperitoneally into each of the test mice. The test compounds are administered intraperitoneally on days one through 9 (relative to tumor inoculation) at various doses. The animals are weighed and survivors are recorded on a regular basis for 60 days. The median survival time and the ratio of survival time for treated (T)/control (C) animals are calculated. […] The criterion for efficacy is T/C×100≥125%.

[2] = tested on: lymphocytic leukemia P388; assay: Lymphocytic leukemia P388 test (intraperitoneal administration); format: in vivo, DBA/2 mice
Description: The animals used are DBA/2 mice all of one sex, weighing a minimum of 17 g. and all within a 3 gram weight range. There are 5 or 6 animals per test group. The tumor transplant is by intraperitoneal injection of 0.1 ml. of dilute ascitic fluid containing 10^6 cells of lymphocytic leukemia P388. The test compounds are administered intraperitoneally on days one, 5 and 9 (relative to tumor inoculation) at various doses. The animals are weighed and survivors are recorded on a regular basis for 30 days. The median survival time and the ratio of survival time for treated (T)/control (C) animals are calculated.

[3] = Mus musculus, ip, 6 mg./kg. i.p., efficacy ≥125%, read-out: T/C × 100
[4] = 12.5 mg./kg. i.p., days 1, 5 and 9
[5] = 25 mg./kg. i.p., days 1, 5 and 9
[6] = 50 mg./kg. i.p., days 1, 5 and 9
[7] = 100 mg./kg. i.p., days 1, 5 and 9
[8] = 200 mg./kg. i.p., days 1, 5 and 9
[9] = Mus musculus, P388, ip, read-out: T/C × 100
[10] = Mus musculus, P388, ip, 12.5 mg./kg. i.p., days 1, 5 and 9, efficacy ≥125%, read-out: T/C × 100
[11] = Mus musculus, P388, ip, 25 mg./kg. i.p., days 1, 5 and 9, efficacy ≥125%, read-out: T/C × 100
[12] = Mus musculus, P388, ip, 50 mg./kg. i.p., days 1, 5 and 9, efficacy ≥125%, read-out: T/C × 100
[13] = Mus musculus, P388, ip, 100 mg./kg. i.p., days 1, 5 and 9, efficacy ≥125%, read-out: T/C × 100
[14] = 3.1 mg./kg. i.p., days 1, 5 and 9
[15] = 6.2 mg./kg. i.p., days 1, 5 and 9
[16] = Mus musculus, P388, ip, 3.1 mg./kg. i.p., days 1, 5 and 9, efficacy ≥125%, read-out: T/C × 100
[17] = Mus musculus, P388, ip, 6.2 mg./kg. i.p., days 1, 5 and 9, efficacy ≥125%, read-out: T/C × 100
[18] = 0.78 mg./kg. i.p., days 1, 5 and 9
[19] = 1.56 mg./kg. i.p., days 1, 5 and 9
[20] = Mus musculus, P388, ip, 0.78 mg./kg. i.p., days 1, 5 and 9, efficacy ≥125%, read-out: T/C × 100
[21] = Mus musculus, P388, ip, 1.56 mg./kg. i.p., days 1, 5 and 9, efficacy ≥125%, read-out: T/C × 100
[22] = 3.12 mg./kg. i.p., days 1, 5 and 9
[23] = 6.25 mg./kg. i.p., days 1, 5 and 9
[24] = Mus musculus, P388, ip, 3.12 mg./kg. i.p., days 1, 5 and 9, efficacy ≥125%, read-out: T/C × 100
[25] = Mus musculus, P388, ip, 6.25 mg./kg. i.p., days 1, 5 and 9, efficacy ≥125%, read-out: T/C × 100

SMILES | Median Survival Time ([1]; 6 mg./kg. i.p.) [days] | response vs control in vivo at 6 mg/kg [1, 3] [%] | Median Survival Time [2, 4] [days] | Median Survival Time [2, 5] [days] | Median Survival Time [2, 6] [days] | Median Survival Time [2, 7] [days] | Median Survival Time [2, 8] [days] | response vs control in vivo at 12.5 mg/kg [2, 10] [%] | response vs control in vivo at 25 mg/kg [2, 11] [%] | response vs control in vivo at 50 mg/kg [2, 12] [%] | response vs control in vivo at 100 mg/kg [2, 13] [%] | Median Survival Time [2, 14] [days] | Median Survival Time [2, 18] [days] | Median Survival Time [2, 19] [days] | response vs control in vivo at 0.78 mg/kg [2, 20] [%] | response vs control in vivo at 1.56 mg/kg [2, 21] [%] | Median Survival Time [2, 22] [days] | Median Survival Time [2, 23] [days] | response vs control in vivo at 3.12 mg/kg [2, 24] [%] | response vs control in vivo at 6.25 mg/kg [2, 25] [%] | other results
CC(CNC1=C2C(=O)c3c(O)ccc(O)c3C(=O)C2=C(NCC(C)N(C)C)CC1)N(C)C (stereo not drawn) [Leuco-1,4-bis[2-dimethylaminopropylamino]-5,8-dihydroxyanthraquinone] | 19.5 | 115 | 11.0 | 13.0 | 14.0 | 15.0 | 18.0 | 122 | 144 | 156 | 167 | – | – | – | – | – | – | – | – | – | Median Survival Time ([1]; 12.5 mg./kg. i.p.): 20.5 days; Median Survival Time ([1]; 25 mg./kg. i.p.): 24.5 days; Median Survival Time ([1]; 50 mg./kg. i.p.): 28.5 days; Median Survival Time ([1]; 100 mg./kg. i.p.): 21.0 days; response vs control in vivo at 12.5 mg/kg ([1]; Mus musculus, ip, 12.5 mg./kg. i.p., efficacy ≥125%, read-out: T/C × 100): 121%; response vs control in vivo at 25 mg/kg ([1]; Mus musculus, ip, 25 mg./kg. i.p., efficacy ≥125%, read-out: T/C × 100): 144%; response vs control in vivo at 50 mg/kg ([1]; Mus musculus, ip, 50 mg./kg. i.p., efficacy ≥125%, read-out: T/C × 100): 168%; response vs control in vivo at 100 mg/kg ([1]; Mus musculus, ip, 100 mg./kg. i.p., efficacy ≥125%, read-out: T/C × 100): 124%; response vs control in vivo at 200 mg/kg [2, 9]: 200%
CNCCNC1=C2C(=O)c3c(O)ccc(O)c3C(=O)C2=C(NCCNC)CC1 [Leuco-1,4-bis[2-(methylamino)ethylamino]-5,8-dihydroxyanthraquinone] | 32.5 | 203 | 19.0 | 19.0 | 6.0 | – | – | 173 | 173 | 55 | – | 15.0 | – | – | – | – | – | – | – | – | Median Survival Time ([1]; 0.7 mg./kg. i.p.): 27.5 days; Median Survival Time ([1]; 1.5 mg./kg. i.p.): 36.0 days; Median Survival Time ([1]; 3 mg./kg. i.p.): 31.0 days; Median Survival Time ([1]; 12 mg./kg. i.p.): 28.0 days; response vs control in vivo at 0.7 mg/kg ([1]; Mus musculus, ip, 0.7 mg./kg. i.p., efficacy ≥125%, read-out: T/C × 100): 172%; response vs control in vivo at 1.5 mg/kg ([1]; Mus musculus, ip, 1.5 mg./kg. i.p., efficacy ≥125%, read-out: T/C × 100): 225%; response vs control in vivo at 3 mg/kg ([1]; Mus musculus, ip, 3 mg./kg. i.p., efficacy ≥125%, read-out: T/C × 100): 194%; response vs control in vivo at 12 mg/kg ([1]; Mus musculus, ip, 12 mg./kg. i.p., efficacy ≥125%, read-out: T/C × 100): 175%; Median Survival Time ([2]; 1.5 mg./kg. i.p., days 1, 5 and 9): 13.0 days; Median Survival Time [2, 15]: 21.0 days; response vs control in vivo at 1.5 mg/kg ([2]; Mus musculus, P388, ip, 1.5 mg./kg. i.p., days 1, 5 and 9, efficacy ≥125%, read-out: T/C × 100): 118%; response vs control in vivo at 3.1 mg/kg [2, 16]: 136%; response vs control in vivo at 6.2 mg/kg [2, 17]: 191%
Cl.Cl.NCCNc1ccc(NCCN)c2c1C(=O)c1c(O)ccc(O)c1C2=O [1,4-Bis(2-aminoethylamino)-5,8-dihydroxyanthraquinone dihydrochloride] | – | – | 8.0 | – | – | – | – | 73 | – | – | – | 30.0 | 24.5 | 20.0 | 223 | 182 | – | – | – | – | Median Survival Time ([2]; 0.19 mg./kg. i.p., days 1, 5 and 9): 23.0 days; Median Survival Time ([2]; 0.39 mg./kg. i.p., days 1, 5 and 9): 25.5 days; Median Survival Time [2, 15]: 15.5 days; response vs control in vivo at 0.19 mg/kg ([2]; Mus musculus, P388, ip, 0.19 mg./kg. i.p., days 1, 5 and 9, efficacy ≥125%, read-out: T/C × 100): 209%; response vs control in vivo at 0.39 mg/kg ([2]; Mus musculus, P388, ip, 0.39 mg./kg. i.p., days 1, 5 and 9, efficacy ≥125%, read-out: T/C × 100): 232%; response vs control in vivo at 3.1 mg/kg [2, 16]: 273%; response vs control in vivo at 6.2 mg/kg [2, 17]: 141%
O=C1c2c(O)ccc(O)c2C(=O)c2c(NCCN3CC3)ccc(NCCN3CC3)c21 [1,4-Bis[2-(1-aziridino)ethylamino]-5,8-dihydroxyanthraquinone] | – | – | 20.5 | 20.0 | 21.5 | 28.5 | – | 205 | – | 215 | 285 | – | 14.0 | 17.0 | 140 | 170 | 19.5 | 18.5 | 195 | 185 | response vs control in vivo at 25 mg/kg [2, 9]: 200%
Cl.Cl.O=C1c2c(O)ccc(O)c2C(=O)c2c(NCCCNCCO)ccc(NCCCNCCO)c21 [1,4-Bis[3-(2-hydroxyethylamino)-1-propylamino]-5,8-dihydroxyanthraquinone dihydrochloride] | – | – | 22.5 | 26.5 | 32.0 | 12.5 | – | 205 | 241 | 291 | 114 | – | 15.0 | 16.0 | 136 | 145 | 19.0 | 19.0 | 173 | 173 | –
O=C1C2=C(NCCCNCCO)CCC(NCCCNCCO)=C2C(=O)c2c(O)ccc(O)c21 [Leuco-1,4-bis[3-(2-hydroxyethylamino)-1-propylamino]-5,8-dihydroxyanthraquinone] | – | – | 19.0 | 18.5 | 25.0 | 27.5 | 33.5 | 173 | 168 | 227 | 250 | – | – | – | – | – | 15.0 | 18.0 | 136 | 164 | response vs control in vivo at 200 mg/kg ([2]; Mus musculus, P388, ip, 200 mg./kg. i.p., days 1, 5 and 9, efficacy ≥125%, read-out: T/C × 100): 305%
